Laboratory results as given in patent publication US7700584B2 (Hangzhou Minsheng Pharmaceuticals Co., Ltd., priority 2004, dated 2010).

Assays:
[1] = system: HL-60 human promyelocytic leukemia; assay: In vitro inhibition rate to tumor cells (MTT), HL-60; type: cell-based; conditions: 50 μg/ml
Experimental: (§1) (1) Single cell suspension was seeded into 96-well plates (×3) (the cells was diluted in the PRMI-1640 minimum medium to 3×10^4 cells/ml, […] diluted cells/well). […] The experiments were performed in quadruplicate.
(§2) (2) The medium was removed. Solutions of the anti-tumor agents (15 compounds) were prepared in a freshly prepared medium at the concentrations indicated in the following Table. […] of the solution was added into each well. Incubation was continued for 48 hours.
(§3) (3) […] of 2 mg/ml MTT was added into each well, and incubated for 4 hours.
(§4) (4) The medium was removed from the well. The microplates were swiftly turned down to throw-off the medium. […] DMSO was added into each well, and vortexed at room temperature for 10 minutes.
(§5) (5) OD value (λ=570 nm) was measured with an Enzyme-Linked Detector.
(§6) (6) The inhibition rates (IR) of cell growth were respectively calculated based on the following equation: IR(%)=[1−(average OD of the experimental group/average OD of the control group)]×100%

[2] = system: SMMC-7721 human hepatic carcinoma; assay: In vitro inhibition rate to tumor cells (MTT), SMMC-7721; type: cell-based; conditions: 50 μg/ml
Experimental: as §1, §2, §3, §4, §5, §6

[3] = system: LLC mouse Lewis lung carcinoma; assay: In vitro inhibition rate to tumor cells (MTT), LLC; type: cell-based; conditions: 50 μg/ml
Experimental: as §1, §2, §3, §4, §5, §6

293 cells = assay: Cell status of 293 cells treated with sample alone (herpes virus screening)
[4] = system: U-937 human histocytic lymphoma; assay: In vitro inhibition rate to tumor cells (MTT), U-937; type: cell-based; conditions: 50 μg/ml
Experimental: as §1, §2, §3, §4, §5, §6

[5] = system: A-549 human lung adenocarcinoma; assay: In vitro inhibition rate to tumor cells (MTT), A-549; type: cell-based; conditions: 50 μg/ml
Experimental: as §1, §2, §3, §4, §5, §6

[6] = system: Bel-7402 human hepatic carcinoma; assay: In vitro inhibition rate to tumor cells (MTT), Bel-7402; type: cell-based; conditions: 50 μg/ml
Experimental: as §1, §2, §3, §4, §5, §6

[7] = system: MCF-7 human mammary adenocarcinoma; assay: In vitro inhibition rate to tumor cells (MTT), MCF-7; type: cell-based; conditions: 50 μg/ml
Experimental: as §1, §2, §3, §4, §5, §6

[8] = system: Hela human cervical carcinoma; assay: In vitro inhibition rate to tumor cells (MTT), Hela; type: cell-based; conditions: 50 μg/ml
Experimental: as §1, §2, §3, §4, §5, §6

Row | SMILES | inhibition rate, Results (%) HL-60 ([1]; Table 1) [%] | inhibition rate, Results (%) HL-60 ([1]; Table 2 (repeated screening)) [%] | inhibition rate, Results (%) SMMC-7721 ([2]; Table 1) [%] | inhibition rate, Results (%) SMMC-7721 ([2]; Table 2 (repeated screening)) [%] | inhibition rate, Results (%) LLC ([3]; Table 1) [%] | inhibition rate, Results (%) LLC ([3]; Table 2 (repeated screening)) [%] | Cytopathy and cell status, Sample (293 cells; 200 μg/ml, 24 hrs) | inhibition rate, Results (%) U-937 ([4]; Table 1) [%] | inhibition rate, Results (%) U-937 ([4]; Table 2 (repeated screening)) [%] | inhibition rate, Results (%) A-549 ([5]; Table 1) [%] | inhibition rate, Results (%) A-549 ([5]; Table 2 (repeated screening)) [%] | inhibition rate, Results (%) Bel-7402 ([6]; Table 1) [%] | inhibition rate, Results (%) Bel-7402 ([6]; Table 2 (repeated screening)) [%] | inhibition rate, Results (%) MCF-7 ([7]; Table 1) [%] | inhibition rate, Results (%) MCF-7 ([7]; Table 2 (repeated screening)) [%] | inhibition rate, Results (%) Hela ([8]; Table 1) [%] | inhibition rate, Results (%) Hela ([8]; Table 2 (repeated screening)) [%] | Cytopathy and cell status, Sample (293 cells; 50 μg/ml, 293 cells without virus, 12 hrs)
1 | CC(C)C1CC23OC1(O)CC(=CO[N+](=O)[O-])C2CCC3C (stereo not shown) [Compound 19, Curcumol mononitrate] | 54.03 | 55.98 | 23.01 | 12.301 | −15.52 | −16.00 | Apoptotic | 50.97 | 42.23 | 2.51 | 3.10 | 4.32 | 8.95 | 12.6 | 0.16 | 55.67 | 50.27 | 
2 | CC(C)C1CC23OC1(O)CC(C)(N1CCNCC1)C2CCC3C (stereo not shown) [Compound 43, Curcumol piperazine without double bond] | 2.56 | 2.00 | −10.12 | −8.98 | −2.06 | −11.23 |  | 16.32 | 12.30 | 13.39 | 11.24 | 9.15 | −4.98 | 43.21 | 41.94 | 62.13 | 59.66 | Good
